Assay results published in US20220387544A1, “NOVEL THERAPEUTIC USE” (Artios Pharma Limited, priority 2019, published 2022).
“Also recorded” adds a separate entry of the source.

Legend:
Assay type in all cases: cell-based
[1] = test system: parental and C20orf196 KO SUM149 tumouroids; assay: Tumouroid assay, parental vs C20orf196 KO SUM149
Procedure: (§1) Cells were seeded into a hydrogel containing 10% rat tail collagen (OcellO) in 384-well high content imaging microplates at varying densities to compensate for differential growth characteristics (Table 2).
(§2) 24 hours after seeding, test compounds and olaparib (Selleckchem) were added in an eight-point dose range with a one in three serial dilution (maximum concentration 12 μM for all compounds, except 30 μM compound A for REV7 KO cell experiments). Dimethyl sulfoxide (DMSO) and 1 μM staurosporine (Med Chem Express) treatments were included as negative and positive controls, respectively. All treatments were carried out in quadruplicate.
After seven or fourteen days of treatment for 20orf196 KO and REV7 KO experiments respectively, cells were fixed with 5× Fix & Stain solution (OcellO) for 16 hours at 4° C. to stain both the nuclei using Hoechst 33258 and the actin cytoskeleton using Rhodamine-Phalloidin. Cells were washed four times with phosphate-buffered saline (PBS), and plates were imaged and analysed using OcellO's three-dimensional image analysis software (Ominer). For each well, two channels of 16-bit image stacks were collected using an automated microscope system: Molecular Devices ImageXpress Micro XLS, equipped with a 4× magnification/0.2NA PlanApo objective. For each image slice (n=47), pixel size was 0.324 μm and step size in z-direction was 50 μm.
Parental or C20orf196 KO SUM149 cells were seeded into a collagen-containing hydrogel in 384-well plates and incubated overnight. The resulting tumouroids were treated with a serial dilution of Polθ inhibitor or olaparib for seven days, fixed, and stained to visualise DNA and F-actin. Plates were imaged, and tumouroid size was measured using OcellO's three-dimensional image analysis software.
Parental or C20orf196 KO SUM149 cells were seeded into a collagen-containing hydrogel in 384-well plates and incubated overnight. The resulting tumouroids were treated with a serial dilution of Polθ inhibitor or olaparib for seven days, fixed, and stained to visualise DNA and F-actin. Plates were imaged, and the number of nuclei per tumouroid was counted using OcellO's three-dimensional image analysis software.
Parental or C20orf196 KO SUM149 cells were seeded into a collagen-containing hydrogel in 384-well plates and incubated overnight. The resulting tumouroids were treated with Polθ inhibitor, olaparib or control compound (at the concentrations indicated) for seven days, fixed, and stained to visualise DNA and F-actin. Plates were imaged, and the fraction of nuclei without an associated actin cytoskeleton was calculated using OcellO's three-dimensional image analysis software.

DLD1 colon cancer cells = assay: CRISPR-Cas9 KO synthetic lethality screen; details: compound at approximate EC20, 15 days, vs DMSO
Procedure: The CRISPR KO screen, sample preparation and data analysis were performed by Horizon Discovery using a CRISPR library against 1965 genes with 10 gRNA's per gene. DLD-1 colon cancer cells were grown in RPMI medium with 10% FBS, infected with the lentiviral library (each viral particle containing Cas9 and sgRNA), selected with puromycin for 2 weeks, and treated with compound B (EC17.1%) or DMSO for 15 days. Synthetic lethality scores were calculated by normalizing the sgRNA count from compound treated cells to DMSO treated control.
The synthetic lethal effect between Polθ inhibitor (Compound B) and knockout of any one of 1965 genes in DLD1 colon cancer cell line was assessed. A CRISPR KO screen was performed in DLD1 cells using compound B at an approximate EC20, using DMSO-exposed cells (the compound vehicle) as control. The quantity of cells containing each sgRNA was measured via next generation sequencing. (FIG. 5(a)) REV7 was in the Top 50 hits out of the […] genes screened, based on FDR score together with comparison to a validated synthetic lethal partner BRCA2. (b) Based on the log fold change, REV7 was in the top 25 hits. […] 7 out of 10 gRNA's were synthetic lethal with Polθ inhibition.

[2] = test system: parental and REV7 KO SUM149 tumouroids; assay: Tumouroid assay, parental vs REV7 KO SUM149; details: fourteen days treatment
Procedure: as §1, §2
After seven or fourteen days of treatment for 20orf196 KO and REV7 KO experiments respectively, cells were fixed with 5× Fix & Stain solution (OcellO) for 16 hours at 4° C. to stain both the nuclei using Hoechst 33258 and the actin cytoskeleton using Rhodamine-Phalloidin. Cells were washed four times with phosphate-buffered saline (PBS), and plates were imaged and analysed using OcellO's three-dimensional image analysis software (Ominer). […]
Parental or REV7 KO SUM149 cells were seeded into a collagen-containing hydrogel in 384-well plates and incubated overnight. […] Plates were imaged, and the fraction of nuclei without an associated actin cytoskeleton was calculated using OcellO's three-dimensional image analysis software.

[3] = test system: Parental and REV7 KO SUM149 cells; assay: Clonogenic survival assay (ICR), SUM149 REV7 KO clones; details: REV7 KO clones vs parental SUM149, 14 days
Procedure: (§3) Clonogenic survival assays were performed as previously described (Edwards et al Nature (2008) 451, 1111-1115; Farmer et al Nature (2005) 434, 917-921). For measurement of sensitivity to Compound A inhibitor, exponentially growing cells were seeded in six-well plates at a concentration of 1000-2000 cells per well. For Compound A, cells were continuously exposed to the drug with media and drug replaced every 72 h. After 14 days, cells were fixed and stained with sulphorhodamine-B (Sigma) and colonies were counted. SFs were calculated and drug sensitivity curves plotted as previously described (Farmer et al Nature (2005) 434, 917-921).
Parental or REV7 KO SUM149 cells were seeded into 6 well plates and incubated overnight. The cells were then treated with a serial dilution of Polθ inhibitor or olaparib for 14 days, fixed, and stained with sulphorhodamine B. The colonies in each well were counted and normalised survival data plotted to generate a dose-response curve.

[4] = test system: SUM149 Parental and C20orf196 KO SUM149 cells; assay: Clonogenic survival assay (ICR), SUM149 C20ORF196 KO clones
Procedure: as §3
Parental or C20orf196 KO SUM149 cells were seeded into 6 well plates and incubated overnight. The cells were then exposed to a serial dilution of Polθ inhibitor or olaparib for 14 days, fixed, and stained with sulphorhodamine B. The colonies in each well were counted and normalised survival data plotted to generate a dose-response curve, as described before.

[5] = test system: parental and SHLD2 KO HCC1395 cells; assay: Colony formation assay, HCC1395; details: SHLD2 KO vs parental HCC1395 cells, colony solubilisation protocol
Procedure: (§4) 1 mL of cells were seeded per well in a 24-well plate in triplicate and incubated overnight at 37° C. Cells were treated with a seven-point dose response curve with a one-in-three serial dilution of compound for the timepoints listed in Table 5. For MDA-MB-436 cells media was replenished every five days.
(§5) Cells were fixed with 70% ethanol for 20 minutes at room temperature with shaking. Cells were then stained with 0.04% Crystal Violet (Sigma Aldrich) for 20 minutes at room temperature with shaking. Cells were washed 6 times with water and air-dried overnight.
(§6) Plates were imaged using a Gelcount (Oxford Optronix), and colonies were counted using parameters optimized for each cell line. […] Colonies were solubilized using 10% acetic acid (VWR) for 30 minutes, absorbance at 595 nm was read using the Clariostar plate reader (BMG Labtech), and blank correction was applied. Relative Survival was calculated by normalization of compound treated wells to DMSO treated wells.
The effect of a DNA polymerase theta […] inhibitor (Compound A) and the PARP inhibitor olaparib on the survival of parental and SHLD2 deleted (SHLD2 KO) HCC1395 cells was investigated by colony formation assay. Briefly, each population was seeded at low density, incubated with different concentrations of the compound and the relative survival normalized to untreated cells was measured with the colony solubilisation protocol.

[6] = test system: Shieldin-defective, PARPi-resistant SUM149 cells; assay: Re-sensitisation to olaparib; details: deletion of C20orf196 or 53BP1 or expression of BRCA1 in SUM149; olaparib 1 μM 10 days
Procedure: For measurement of re-sensitisation to Olaparib, exponentially growing cells were exposed to Compound A for 48 hours. After, cells were seeded in 96-well plates at a concentration of 1000-2000 cells per well. 24 hours post-seeding, Olaparib treatment was initiated and cells were continuously exposed to the drug with media and drug replenished every 72 hours. After 10 days, cell viability was estimated using Cell-Titre Glo (Promega). SFs were calculated and drug sensitivity curves plotted as previously described (Farmer et al Nature (2005) 434, 917-921).
Briefly, parental SUM149 cells or derivatives with either BRCA1 restored or with genetic deletion of either C20orf196 or 53BP1 were treated with Compound A in a tissue culture flask for 48 hours. The cells were then washed before seeding at low density in 96 well plates. 24 hours post seeding, cells were incubated with either olaparib or DMSO for a further 10 days. The relative survival normalised to untreated cells was measured using Cell-Titre Glo.

[7] = test system: parental and REV7 KO 22Rv1 cells; assay: Colony formation assay, 22Rv1; details: REV7 KO vs REV7 wild type parental 22Rv1 cells, 2 weeks
Procedure: as §4, §5
Plates were imaged using a Gelcount (Oxford Optronix), and colonies were counted using parameters optimized for each cell line. 22Rv1 viability curves were generated from the colony counts alone. MDA-MB-436 and […] viability curves were generated from solubilized colonies. Colonies were solubilized using 10% acetic acid (VWR) for 30 minutes, absorbance at 595 nm was read using the Clariostar plate reader (BMG Labtech), and blank correction was applied. Relative Survival was calculated by normalization of compound treated wells to DMSO treated wells.
The effect of a DNA polymerase theta (Polθ) inhibitor (Compound A) or the PARP inhibitor olaparib on the survival of parental (REV7 wild type) or REV7 deleted (REV7 KO) 22Rv1 cells was investigated in colony formation assays (CFA—see protocol above). […]

[8] = test system: parental and SHLD2 KO MDA-MB-436 cells; assay: Colony formation assay, MDA-MB-436; details: SHLD2 KO vs parental MDA-MB-436 cells, colony solubilization protocol
Procedure: as §4, §5, §6
The effect of a DNA polymerase theta (Polθ) inhibitor (Compound A) and the PARP inhibitor olaparib on the survival of parental and SHLD2 deleted (SHLD2 KO) MDA-MB-436 cells was investigated by colony formation assay. Briefly, each population was seeded at low density, incubated with different concentrations of the compound and the relative survival normalized to untreated cells was measured with the colony solubilization protocol.

[9] = in C20orf196 KO cells when compared with olaparib
[10] = C20orf196 KO vs parental SUM149 tumouroids, seven days treatment

## Cc1cccc(N(C)C(=O)[C@@H]2C[C@H](O)CN2c2nc(C)cc(C(F)(F)F)c2C#N)c1 [Compound B, (2S,4S)-1-(3-cyano-6-methyl-4-(trifluoromethyl)pyridin-2-yl)-4-hydroxy-N-methyl-N-(m-tolyl)pyrrolidine-2-carboxamide]
[1]; [9]
  cell death: significantly more cell death
  reduction in the number of nuclei per tumoroid: greater reduction in the number of nuclei per tumoroid
  reduction in tumoroid size: greater reduction in tumoroid size
DLD1 colon cancer cells
  REV7 gRNA's synthetic lethal with Polθ inhibition, out of 10: 7
  position of REV7 among hits based on log fold change: ≤ 25

## O=C(c1cc(Cc2n[nH]c(=O)c3ccccc23)ccc1F)N1CCN(C(=O)C2CC2)CC1 [olaparib, reference compound]
[2]
  cell death (fraction of dead cells): less cell death
[3]
  sensitivity by reduction in number of colonies: resistance; also recorded: more resistant
[4]; C20orf196 KO clones vs parental SUM149, 14 days
  sensitivity by reduction in number of colonies: more resistant
[4]; parental SUM149 (BRCA1 mutation), 14 days
  sensitivity of parental SUM149 cells: hypersensitive
[5]
  sensitivity by relative survival: significantly more resistant
[6]
  resistance to olaparib: induces resistance; also recorded: marked resistance
[1]; C20orf196 KO vs parental SUM149 tumouroid cultures, seven days treatment
  cell death (fraction of dead cells): significantly less cell death
[1]; [10]
  sensitivity by reduction in number of nuclei per tumouroid: less sensitive
  sensitivity by reduction in tumouroid size: less sensitive
[7]
  sensitivity by relative survival (colonies): still retain resistance
[8]
  sensitivity by relative survival: trend for increased resistance
